Results published in patent US8569289B2, “Fumarate salt of 4-bromophenyl 1,4-diazabicyclo[3.2.2]nonane-4-carboxylate, crystalline forms thereof, preparation thereof and therapeutic use thereof” (Sanofi, priority 2008, dated 2013).

Columns and labels:
[1] = Instantaneous solubility tests; type: physicochemical
Experimental: The instantaneous solubilities of the base and of the fumarate salt of the compound of formula (I) were determined in the following media: • water; • buffer pH 1.2: 0.01M KH2PO4, pH adjusted with orthophosphoric acid; • buffer pH 7.2: 0.2M KH2PO4, pH adjusted with KOH; • buffer pH 9.0: 0.04M Na2B4O7.10H2O, pH adjusted with boric acid; • dimethyl sulfoxide (DMSO).
Determination of the instantaneous solubilities: successive volumes of the medium are added to the test specimen until the compound has dissolved. Stirring is carried out with a vortex mixer at ambient temperature.
Information on the corresponding classification according to the European Pharmacopoeia is also given therein.

[2] = Test of thermal stability in the solid state - appearance; type: physicochemical
Experimental: Test of thermal stability in the solid state
(§1) The base and the fumarate salt of the compound of formula (I) are analyzed after 1, 7 and 14 days of storage at: • 80° C.; • 80° C. and under 80% relative humidity (RH). Appearance
In contrast, the appearance of the fumarate salt of the compound of formula (I) remains unchanged.

[3] = Thermal stability in the solid state - quantitative determination of nondecomposed product and impurities by HPLC; type: physicochemical; details: for Sum % imp. quantified (% surf.): HPLC UV 220 nm; for Non-decomposed base / product (%): HPLC, % (w/w) of nondecomposed base
Experimental: as §1
Quantitative Determination of the Nondecomposed Product and Percentage of Impurities
Chromatographic Conditions
Column: Inertsil ODS 3 150×4.6 mm, 5 μm, maintained at 25° C.
Buffer pH 4.5: 0.01M KH2PO4, 0.5 g/l sodium heptanesulfonate pH adjusted to 4.5 with 1M KOH
Phase A: 90 V buffer pH 4.5
• 10 V acetonitrile Phase B: 20 V buffer pH 4.5 • 80 V acetonitrile Gradient: from 100% of phase A to 80% of phase B in 40 min Flow rate: 1.0 ml/min Detection: UV, λ=220 nm (optical path: 1 cm) Solutions injected: 0.2 mg (base or salt)/ml solutions in a mixture of 50 volumes of water and 50 volumes of acetonitrile. Comment: for the quantitative determinations, the results obtained are expressed in % (w/w) of nondecomposed base (by calibrating with nondecomposed base or salt controls stored at ambient temperature).
Comment: the sum of the impurities quantified may be less after storing at 80° C. under 80% relative humidity because impurities may decompose to give products which cannot be detected by UV or which are not separated by the analytical conditions.

[4] = type: physicochemical
Source text: In contrast, the fumarate salt of 4-bromophenyl 1,4-diazabicyclo[3.2.2]nonane-4-carboxylate crystallizes in two nonhygroscopic polymorphic forms (forms I and II). […] This property of the two polymorphic forms of the fumarate salt of 4-bromophenyl 1,4-diazabicyclo[3.2.2]nonane-4-carboxylate is an advantage in comparison with the hydrochloride salt of 4-bromophenyl 1,4-diazabicyclo[3.2.2]nonane-4-carboxylate.

[5] = buffer pH 1.2, ambient temperature
[6] = buffer pH 7.2, ambient temperature
[7] = buffer pH 9.0, ambient temperature
[8] = solid state, 80° C./80% RH, 1 d
[9] = solid state, 80° C./80% RH, 7 d
[10] = solid state, 80° C./80% RH, 14 d

| Compound | Solubility classification according to the European Pharmacopoeia ([1]; DMSO) | Instantaneous solubility ([1]; DMSO, ambient temperature) | Solubility classification according to the European Pharmacopoeia ([1]; Water) | Instantaneous solubility ([1]; Water, ambient temperature) | Solubility classification according to the European Pharmacopoeia ([1]; buffer pH 1.2) | Instantaneous solubility [1, 5] | Solubility classification according to the European Pharmacopoeia ([1]; buffer pH 7.2) | Instantaneous solubility [1, 6] | Solubility classification according to the European Pharmacopoeia ([1]; buffer pH 9.0) | Instantaneous solubility [1, 7] | Appearance ([2]; Initial appearance) | Appearance ([2]; solid state, 80° C., 1 d) | Appearance ([2]; solid state, 80° C., 7 d) | Appearance ([2]; solid state, 80° C., 14 d) | Appearance [2, 8] | Appearance [2, 9] | Appearance [2, 10] | Sum % imp. quantified (% surf.) ([3]; Initial) | Sum % imp. quantified (% surf.) ([3]; solid state, 80° C., 7 d) | Non-decomposed base / product (%) ([3]; solid state, 80° C., 7 d) | other results |
| --- | --- | --- | --- | --- | --- | --- | --- | --- | --- | --- | --- | --- | --- | --- | --- | --- | --- | --- | --- | --- | --- |
| O=C(Oc1ccc(Br)cc1)N1CCN2CCC1CC2 [Base, 4-Bromophenyl 1,4-diazabicyclo[3.2.2]nonane-4-carboxylate] | Soluble | ~75 g of product/l | Slightly soluble | <2 g of product/l | Freely soluble | 140 g of product/l | Slightly soluble | <2 g of product/l | Slightly soluble | <2 g of product/l | Virtually white | Pale yellow | Pale yellow | Pale yellow | Yellow-brown | Brown | Brown | 4.02 | 3.57 | 100 | Sum % imp. quantified (% surf.) ([3]; solid state, 80° C., 14 d): 3.14 % surf.; Non-decomposed base / product (%) ([3]; solid state, 80° C., 14 d): 99.9%; Sum % imp. quantified (% surf.) [3, 9]: 4.37 % surf.; Non-decomposed base / product (%) [3, 9]: 98.7%; Sum % imp. quantified (% surf.) [3, 10]: 4.53 % surf.; Non-decomposed base / product (%) [3, 10]: 98.3% |
| O=C(O)/C=C/C(=O)O.O=C(Oc1ccc(Br)cc1)N1CCN2CCC1CC2 [form I, fumarate salt of 4-bromophenyl 1,4-diazabicyclo[3.2.2]nonane-4-carboxylate] |  |  |  |  |  |  |  |  |  |  |  |  |  |  |  |  |  |  |  |  | Hygroscopicity of the polymorphic form [4]: nonhygroscopic; Impact of water on the crystalline form ([4]; water in the vapor or liquid form): no impact on the crystalline form |
| O=C(O)/C=C/C(=O)O.O=C(Oc1ccc(Br)cc1)N1CCN2CCC1CC2 [Fumarate, fumarate salt of 4-bromophenyl 1,4-diazabicyclo[3.2.2]nonane-4-carboxylate] | Freely soluble | ~140 g of product/l | Sparingly soluble | ~27 g of product/l | Sparingly soluble | ~16 g of product/l | Soluble | ~75 g of product/l | Soluble | ~68 g of product/l | White powder | unchanged | unchanged | unchanged | unchanged | unchanged | unchanged | 0.32 | 0.60 | 99.6 | Sum % imp. quantified (% surf.) ([3]; solid state, 80° C., 14 d): 0.53 % surf.; Non-decomposed base / product (%) ([3]; solid state, 80° C., 14 d): 100%; Sum % imp. quantified (% surf.) [3, 9]: 0.74 % surf.; Non-decomposed base / product (%) [3, 9]: 99.7%; Sum % imp. quantified (% surf.) [3, 10]: 0.83 % surf.; Non-decomposed base / product (%) [3, 10]: 100% |
| Cl.O=C(Oc1ccc(Br)cc1)N1CCN2CCC1CC2 [hydrochloride, hydrochloride salt of 4-bromophenyl 1,4-diazabicyclo[3.2.2]nonane-4-carboxylate] |  |  |  |  |  |  |  |  |  |  |  |  |  |  |  |  |  |  |  |  | Forms shown by the water sorption/desorption isotherm [4]: present in a hemihydrate form and two anhydrous forms; Stability of the water stoichiometry ([4]; under the effect of temperature or when flushing with nitrogen): has a tendency to lose its water stoichiometry |
